This is an account of results in PubChem BioAssay (NCI).

Values joined by “and” are separate entries in the source; they are usually repeats but may differ in a detail not shown here. Identical values can stand only once.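 Cells were grown in 96-well plates and exposed to each compound for 48 hours at five concentrations; endpoints were interpolated linearly between bracketing concentrations, or set to the highest concentration if not reached. GI50 marks 50% less growth. The concentration for full growth arrest is given as TGI.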

For one assay, the system named is DU-145 prostate. Briefly: NCI tumour cell line growth inhibition, 48 h.
Regarding `NC(N)=NCCCC(NCc1c2ccccc2nc2ccccc12)C(=O)O` (stereo unspecified), the TGI was > 100 µM.
Still for that read-out and setting: under `CC(=O)O[C@H]1CC2C(C3CC[C@H](C(C)CCC(=O)O)[C@]31C)[C@H](OC(C)=O)C[C@@H]1CC3(CC[C@]21C)OOC1(CCC(C)CC1)OO3` (stereo partly specified) stands 18 µM and 13.5 µM.
Regarding `Cc1cnc(C(=O)NNc2nc3sc4c(c3c(=O)[nH]2)C(C)CCC4)cn1` (stereo unspecified), the GI50 was 1.43 µM and the TGI turned out to be 80.7 µM.
As for `O=C1c2ccccc2C(=O)c2c(NC3CCCCC3)ccc(Nc3ccc(S(=O)(=O)O)cc3)c21`, the TGI is > 100 µM.
For `CN(C)c1ccc(-c2cc(-c3ccc(Nc4nc(Nc5ccc(Cl)cc5)nc(Nc5ccc(Cl)cc5)n4)cc3)nc(N)c2C#N)cc1`, the GI50 was 34.6 µM and the TGI is > 100 µM.
In the same order, the values of `COCCN(Cc1ccc(F)cc1)c1ccc(CO)c(Cl)c1` are 70.4 µM and > 100 µM.
The like results for `COc1ccc(C(O)c2cc3c(N)c(C(=O)Nc4cccc5ccccc45)sc3nc2C)cc1` (stereo unspecified) were, in that order, 0.348 µM and 3.12 µM.
In the same order, the values of `Cc1cc(Br)c(NC(=O)c2c(-c3c(Cl)cccc3Cl)noc2C)c(Br)c1` are 90.8 µM and > 100 µM.
Consider `CC(C)Cc1ccc(C(C)/C=C2\CCC(CN(C)C)C2=O)cc1` (stereo unspecified), for which the TGI stood at 23.6 µM.
Take `CC(C)[C@@H]1CC[C@]2(CO2)[C@@H]2C(=O)OCC(C(=O)O)=C[C@H]21`: the GI50 was 0.471 µM and the TGI was > 100 µM.
Consider `Cn1c(=O)c2nc3sc4c(n3c2n(C)c1=O)C(=O)c1ccccc1C4=O`, for which the TGI is > 100 µM.

For another assay, the system named is HCC-2998 colon. Briefly: NCI tumour cell line growth inhibition, 48 h.
As for `NC(N)=NCCCC(NCc1c2ccccc2nc2ccccc12)C(=O)O` (stereo unspecified), the TGI was > 100 µM.
Consider `CC(=O)O[C@H]1CC2C(C3CC[C@H](C(C)CCC(=O)O)[C@]31C)[C@H](OC(C)=O)C[C@@H]1CC3(CC[C@]21C)OOC1(CCC(C)CC1)OO3` (stereo partly specified), for which the GI50 was 8.43 µM and 2.73 µM; the TGI is 21.3 µM and 6.48 µM.
On to `Cc1cnc(C(=O)NNc2nc3sc4c(c3c(=O)[nH]2)C(C)CCC4)cn1` (stereo unspecified), for which the GI50 was 1.63 µM and the TGI stood at 20.8 µM.
For the compound `O=C1c2ccccc2C(=O)c2c(NC3CCCCC3)ccc(Nc3ccc(S(=O)(=O)O)cc3)c21`, the TGI was determined as 71.1 µM.
With `CN(C)c1ccc(-c2cc(-c3ccc(Nc4nc(Nc5ccc(Cl)cc5)nc(Nc5ccc(Cl)cc5)n4)cc3)nc(N)c2C#N)cc1`, the GI50 was 99.4 µM and the TGI is > 100 µM.
In the same order, the values of `COCCN(Cc1ccc(F)cc1)c1ccc(CO)c(Cl)c1` are 24 µM and > 100 µM.
For `COc1ccc(C(O)c2cc3c(N)c(C(=O)Nc4cccc5ccccc45)sc3nc2C)cc1` (stereo unspecified), the GI50 was 0.475 µM and the TGI is > 54 µM.
As for `Cc1cc(Br)c(NC(=O)c2c(-c3c(Cl)cccc3Cl)noc2C)c(Br)c1`, the GI50 is > 100 µM and the TGI is > 100 µM.
In turn, `CC(C)Cc1ccc(C(C)/C=C2\CCC(CN(C)C)C2=O)cc1` (stereo unspecified) gave a TGI of 31.3 µM.
As for `CC(C)[C@@H]1CC[C@]2(CO2)[C@@H]2C(=O)OCC(C(=O)O)=C[C@H]21`, the GI50 is 0.459 µM and the TGI is > 52.3 µM.
Regarding `Cn1c(=O)c2nc3sc4c(n3c2n(C)c1=O)C(=O)c1ccccc1C4=O`, the TGI is > 100 µM.

For the next assay, the system named is MOLT-4 leukemia. Briefly: NCI tumour cell line growth inhibition, 48 h.
As to `NC(N)=NCCCC(NCc1c2ccccc2nc2ccccc12)C(=O)O` (stereo unspecified), the TGI is 45 µM.
Consider `CC(=O)O[C@H]1CC2C(C3CC[C@H](C(C)CCC(=O)O)[C@]31C)[C@H](OC(C)=O)C[C@@H]1CC3(CC[C@]21C)OOC1(CCC(C)CC1)OO3` (stereo partly specified), for which the TGI was 10.6 µM and 3.79 µM.
In the case of `Cc1cnc(C(=O)NNc2nc3sc4c(c3c(=O)[nH]2)C(C)CCC4)cn1` (stereo unspecified), the GI50 was 0.676 µM and the TGI came out at 13.4 µM.
As to `O=C1c2ccccc2C(=O)c2c(NC3CCCCC3)ccc(Nc3ccc(S(=O)(=O)O)cc3)c21`, the TGI is > 100 µM.
Regarding `CN(C)c1ccc(-c2cc(-c3ccc(Nc4nc(Nc5ccc(Cl)cc5)nc(Nc5ccc(Cl)cc5)n4)cc3)nc(N)c2C#N)cc1`, the GI50 is 2.13 µM and the TGI is 20.5 µM.
In the same order, the values of `COCCN(Cc1ccc(F)cc1)c1ccc(CO)c(Cl)c1` are 34 µM and > 78.9 µM.
In the same order, the values of `COc1ccc(C(O)c2cc3c(N)c(C(=O)Nc4cccc5ccccc45)sc3nc2C)cc1` (stereo unspecified) are 0.399 µM and > 33.2 µM.
In the same order, the values of `Cc1cc(Br)c(NC(=O)c2c(-c3c(Cl)cccc3Cl)noc2C)c(Br)c1` are > 100 µM and > 100 µM.
`CC(C)Cc1ccc(C(C)/C=C2\CCC(CN(C)C)C2=O)cc1` (stereo unspecified) yielded a TGI of 7.91 µM.
In the case of `CC(C)[C@@H]1CC[C@]2(CO2)[C@@H]2C(=O)OCC(C(=O)O)=C[C@H]21`, the GI50 is 0.62 µM and the TGI worked out at 3.96 µM.
`Cn1c(=O)c2nc3sc4c(n3c2n(C)c1=O)C(=O)c1ccccc1C4=O`: the TGI worked out at 38.3 µM.

Another assay concerns NCI-H460 lung. Briefly: NCI tumour cell line growth inhibition, 48 h.
In the case of `NC(N)=NCCCC(NCc1c2ccccc2nc2ccccc12)C(=O)O` (stereo unspecified), the TGI was > 100 µM.
For the compound `CC(=O)O[C@H]1CC2C(C3CC[C@H](C(C)CCC(=O)O)[C@]31C)[C@H](OC(C)=O)C[C@@H]1CC3(CC[C@]21C)OOC1(CCC(C)CC1)OO3` (stereo partly specified), the TGI was 16.7 µM and 7.64 µM.
As to `Cc1cnc(C(=O)NNc2nc3sc4c(c3c(=O)[nH]2)C(C)CCC4)cn1` (stereo unspecified), the GI50 was 0.545 µM and the TGI was determined as 12.9 µM.
Take `O=C1c2ccccc2C(=O)c2c(NC3CCCCC3)ccc(Nc3ccc(S(=O)(=O)O)cc3)c21`: the TGI is > 100 µM.
As to `CN(C)c1ccc(-c2cc(-c3ccc(Nc4nc(Nc5ccc(Cl)cc5)nc(Nc5ccc(Cl)cc5)n4)cc3)nc(N)c2C#N)cc1`, the GI50 was 15.4 µM and the TGI is > 100 µM.
In the case of `COCCN(Cc1ccc(F)cc1)c1ccc(CO)c(Cl)c1`, the GI50 was 1.9 µM and the TGI was > 43.6 µM.
For `COc1ccc(C(O)c2cc3c(N)c(C(=O)Nc4cccc5ccccc45)sc3nc2C)cc1` (stereo unspecified), the GI50 was 0.332 µM and the TGI came to 5.93 µM.
With `Cc1cc(Br)c(NC(=O)c2c(-c3c(Cl)cccc3Cl)noc2C)c(Br)c1`, the GI50 was > 100 µM and the TGI was > 100 µM.
`CC(C)Cc1ccc(C(C)/C=C2\CCC(CN(C)C)C2=O)cc1` (stereo unspecified): the TGI was determined as 45.8 µM.
In the case of `CC(C)[C@@H]1CC[C@]2(CO2)[C@@H]2C(=O)OCC(C(=O)O)=C[C@H]21`, the GI50 is 0.402 µM and the TGI was > 100 µM.
For `Cn1c(=O)c2nc3sc4c(n3c2n(C)c1=O)C(=O)c1ccccc1C4=O`, the TGI was > 95.4 µM.

The test system of a further assay is NCI-H522 lung. Briefly: NCI tumour cell line growth inhibition, 48 h.
With `NC(N)=NCCCC(NCc1c2ccccc2nc2ccccc12)C(=O)O` (stereo unspecified), the TGI turned out to be 69.9 µM.
Same read-out and setting: under `CC(=O)O[C@H]1CC2C(C3CC[C@H](C(C)CCC(=O)O)[C@]31C)[C@H](OC(C)=O)C[C@@H]1CC3(CC[C@]21C)OOC1(CCC(C)CC1)OO3` (stereo partly specified) stands 12.3 µM and 3.48 µM.
With `Cc1cnc(C(=O)NNc2nc3sc4c(c3c(=O)[nH]2)C(C)CCC4)cn1` (stereo unspecified), the GI50 is 2.97 µM and the TGI is > 100 µM.
Regarding `O=C1c2ccccc2C(=O)c2c(NC3CCCCC3)ccc(Nc3ccc(S(=O)(=O)O)cc3)c21`, the TGI came to 52.5 µM.
Regarding `CN(C)c1ccc(-c2cc(-c3ccc(Nc4nc(Nc5ccc(Cl)cc5)nc(Nc5ccc(Cl)cc5)n4)cc3)nc(N)c2C#N)cc1`, the GI50 was 48.4 µM and the TGI was > 100 µM.
In the same order, the values of `COCCN(Cc1ccc(F)cc1)c1ccc(CO)c(Cl)c1` are 39.1 µM and > 100 µM.
For `COc1ccc(C(O)c2cc3c(N)c(C(=O)Nc4cccc5ccccc45)sc3nc2C)cc1` (stereo unspecified), the GI50 is 0.157 µM.
Regarding `Cc1cc(Br)c(NC(=O)c2c(-c3c(Cl)cccc3Cl)noc2C)c(Br)c1`, the GI50 was > 100 µM and the TGI was > 100 µM.
On to `CC(C)Cc1ccc(C(C)/C=C2\CCC(CN(C)C)C2=O)cc1` (stereo unspecified), for which the TGI was 15.2 µM.
Take `CC(C)[C@@H]1CC[C@]2(CO2)[C@@H]2C(=O)OCC(C(=O)O)=C[C@H]21`: the GI50 is 0.0462 µM and the TGI was determined as 0.155 µM.
Compound `Cn1c(=O)c2nc3sc4c(n3c2n(C)c1=O)C(=O)c1ccccc1C4=O` came in with a TGI of 27.9 µM.

A further assay has as its system OVCAR-5 ovarian. Briefly: NCI tumour cell line growth inhibition, 48 h.
For `NC(N)=NCCCC(NCc1c2ccccc2nc2ccccc12)C(=O)O` (stereo unspecified), the TGI is > 100 µM.
